Entries after “also recorded” stand apart in the source; their conditions may differ. Residues, ends and D or L forms follow the SMILES beside them.
Assays:
[1] = Circular dichroism spectroscopy of polypeptides in phosphate buffered saline; type: physicochemical; conditions: 1 mg/ml
Procedure: The conformational properties of the polypeptides were investigated to elucidate any secondary structure that might be necessary for polypeptide immunoreaction with human anti-EBNA antibodies. The polypeptides were dissolved at a concentration of 1 mg/ml in phosphate-buffered saline (PBS). Spectra were taken using 1 ml samples in a Cary 61 spectropolarimeter (Cary Instruments, Applied Physics Corp., Monrovia, Calif.) interfaced and automated with a Digital Equipment Corporation 11/02 computer (Digital Equipment Corporation, Maynard, Mass.).

anti-EBNA antibodies = test: ELISA with polypeptide as solid phase antigen, detecting anti-polypeptide antibodies in sera; type: binding, human; conditions: for Average titer of Progressive Systemic Schlerosis (PSS) patients to polypeptide compared with normals: high and low serum dilutions; for Reaction of VCA- sera with polypeptide: panel of 19 VCA- sera; for Reactivity of sera of EBV non-immune donors to polypeptide: panel of 27 EBV non-immune (VCA-) donors; for Number of 91 anti-EBNA positive (ACIF) sera positive against polypeptide: sera at 1:20 dilution; for Antibodies binding to polypeptide before and after EBV-induced infectious mononucleosis: sera of two subjects; for Reaction of sera of clinically normal VCA+ individuals with polypeptide: two serum dilutions
Procedure: A solution containing a substrate for the enzyme label such as hydrogen peroxide for peroxidase and a color-forming dye precursor such as o-phenylenediamine, or p-nitrophenyl phosphate for alkaline phosphatase is thereafter admixed with the solid phase.
(§1) Anti-peptide antibody binding and inhibition studies were carried out by an enzyme-linked immunosorbent assay (ELISA) as described below.
(§2) Briefly, microtiter wells (Costar, #3590, Cambridge, Mass.) were coated with individual polypeptides as antigens by adding 100 microliters (ul) of BBS [10 millimoler (mM) sodium borate (pH 8.3), 150 mM NaCl] containing polypeptide at a concentration of 10 micrograms per milliliter (ug/ml). Contact between the wells and antigen-containing solution was maintained for a predetermined time, typically 15 minutes, and at 20 degrees C., to form an antigen-coated solid phase. The solid and liquid phases were separated and the wells were washed three times with BBS.
Non-specific binding sites were blocked by admixing 200 microliters of 1% bovine serum albumin (BSA) in each well to form another solid-liquid phase admixture, and maintaining that solid-liquid phase admixture for 30 minutes, at 20 degrees C. The phases were separated and excess, unbound BSA was removed by washinq three times with BBS.
[…] Contact between the diluted sera and the antigen-coated solid phase was maintained for a predetermined time such as 1 hour, and at 20 degrees C., for an immunoreactant to form. The solid and liquid phases were separated, and the solid phase; i.e., antigen-coated, immunoreactant-containing wells, was then washed three times with BBS.
The antibodies in human sera that immunoreacted with an adsored polypeptide were detected using an indicating means comprising alkaline phosphatase-conjugated goat anti-human Ig antibody (Tago, Burlington, CA). The antibodies in rabbit sera that immunoreacted with an adsorbed polypeptide were detected using an indicating means comprising alkaline phosphatase-conjugated goat anti-rabbit Ig antibody (Kirkegard & Perry Laboratories, Inc., Gaithersburg, Md.). In either instance, 100 microliters of the indicating antibody diluted 1:300 in BBS were added per well to form a further solid-liquid phase composition. This solidliquid phase composition was maintained for a predetermined time, one hour, for the formation of a reaction product between the human antibodies bound to the solid phase and the indicating means, and at 20 degrees C.

EBNA = test: Immunoblotting of whole cell extracts with rabbit anti-polypeptide antisera; type: binding, Epstein-Barr virus; conditions: for Inhibition of recognition of EBNA by anti-P62 serum: anti-P62 serum 1:10 incubated with 40 ug/ml polypeptide for one hour
Procedure: Exemplary receptor molecules containing antibody combining sites of this invention raised in rabbits to the polypeptides shown in Table 1 were studied using the immunoblotting procedures of Towbin, et. al., Proc. Natl. Acad. Sci., U.S.A., 76:4350-4354 (1979) and Billings, et. al., Proc. Natl. Acad. Sci., U.S.A., 80:7104-7108 (1983). Further details are provided in the Materials and Methods section (II).
Extracts of EBNA producing and non-producing (control) cells were prepared to determine if receptor molecules of this invention were useful for diagnosing EBNA expression. Cells from cultures described hereinabove were washed in phosphate-buffered saline (PBS; 150 mM NaCl, 10 mM sodium phosphate, pH 7.4) containing 0.2 mM phenylmethylsulfonyl fluoride, swollen for 5 minutes in reticulocyte standard buffer (RSB; 10 mM NaCl, 10 mM Tris-HCl, pH 7.4, 1.5 mM MgCl2, 0.2 mM phenylmethylsulfonyl fluoride), and lysed by sonication in 3-5 volumes of RBS adjusted to 0.2-0.35 molar (M) NaCl. After 30 minutes on ice, the sonicate was centrifuged at 10,000×g for 15 minutes to remove cellular debris.
Cell extracts obtained above were assayed for EBNA using human sera known to contain anti-EBNA antibodies or exemplary receptor molecules of this invention. Tne extracts were either concentrated by precipitation with 2 volumes of ethanol at -20 degrees C. for about 18 hours, and were then dissolved in sample buffer [SB; 10% glycerol, 2% 2-mercaptoethanol, 1% sodium dodecyl sulfate (SDS), 0.002% bromphenol blue, 40 mM Tris-HCl (pH 7.4)] or diluted 1:6 in sample buffer for SDS-polyacrylamide gel electrophoresis (SDS-PAGE). 7.5% Polyacrylamide gels were cast and run according to the procedure of Laemmli, Nature, […] (1970), applying 50 to 200 micorgrams of total protein per lane. […]
Anti-peptide antibodies bound to EBNA protein were detected by reacting the blots with an indicating means. […]

[2] = test system: rabbit anti-polypeptide antibody to polypeptide P62; test: Competition ELISA: rabbit anti-polypeptide P62 antibody binding to solid phase P62; conditions: antibody first incubated with competing polypeptide
Procedure: as §1, §2
Non-specific binding sites were blocked by admixing 200 microliters of 1% bovine serum albumin (BSA) in each well to form another solid-liquid phase admixture, and maintaining that solid-liquid phase admixture for 30 minutes, at 20 degrees C. […]
The antibodies in human sera that immunoreacted with an adsored polypeptide were detected using an indicating means comprising alkaline phosphatase-conjugated goat anti-human Ig antibody (Tago, Burlington, CA). The antibodies in rabbit sera that immunoreacted with an adsorbed polypeptide were detected using an indicating means comprising alkaline phosphatase-conjugated goat anti-rabbit Ig antibody (Kirkegard & Perry Laboratories, Inc., Gaithersburg, Md.). […]

[3] = serum MV post-mononucleosis, dilution 1:20
[4] = serum MV pre-mononucleosis, dilution 1:20
[5] = serum SB post-mononucleosis, dilution 1:20
[6] = serum SB pre-mononucleosis, dilution 1:20
[7] = serum VCA + Normal 1, dilution 1:20
[8] = serum VCA + Normal 2, dilution 1:20

SMILES | Conformation indicated by circular dichroism spectrum [1] | Average titer of Progressive Systemic Schlerosis (PSS) patients to polypeptide compared with normals (anti-EBNA antibodies) | Time course of anti-P62 antibodies after onset of infectious mononucleosis versus ACIF anti-EBNA titer (anti-EBNA antibodies; one-half of 8 students (e.g. patient 15)) | Time of detection of antibodies against polypeptide after onset of infectious mononucleosis (anti-EBNA antibodies; other half of 8 students (e.g. patients 14 and 2)) | Reaction of VCA- sera with polypeptide (anti-EBNA antibodies) | Reactivity of sera of EBV non-immune donors to polypeptide (anti-EBNA antibodies) | Number of 91 anti-EBNA positive (ACIF) sera positive against polypeptide (anti-EBNA antibodies) | Number of 91 EBNA positive sera immunoreacting with polypeptide (anti-EBNA antibodies; sera at 1:320 dilution) | Antibodies binding to polypeptide before and after EBV-induced infectious mononucleosis (anti-EBNA antibodies) | OD405 × 10^3 obtained with patient antibodies to polypeptide (anti-EBNA antibodies; [3]) | OD405 × 10^3 obtained with patient antibodies to polypeptide (anti-EBNA antibodies; [4]) | OD405 × 10^3 obtained with patient antibodies to polypeptide (anti-EBNA antibodies; [5]) | OD405 × 10^3 obtained with patient antibodies to polypeptide (anti-EBNA antibodies; [6]) | OD405 × 10^3 obtained with patient antibodies to polypeptide (anti-EBNA antibodies; [7]) | OD405 × 10^3 obtained with patient antibodies to polypeptide (anti-EBNA antibodies; [8]) | Reaction of sera of clinically normal VCA+ individuals with polypeptide (anti-EBNA antibodies) | Inhibition of recognition of EBNA by anti-P62 serum (EBNA) | OD405 × 10^3 obtained with patient antibodies to polypeptide, average ± one standard deviation (anti-EBNA antibodies; VCA- Normals (n = 27), dilution 1:20) | Inhibition of recognition of EBNA by anti-P60 serum (EBNA; anti-P60 serum 1:50 incubated with 40 ug/ml polypeptide for one hour) | Inhibition of binding of anti-polypeptide P62 to solid phase polypeptide P62 [2]
C[C@H](N)C(=O)NCC(=O)N[C@@H](C)C(=O)NCC(=O)NCC(=O)NCC(=O)N[C@@H](C)C(=O)NCC(=O)NCC(=O)N[C@@H](C)C(=O)NCC(=O)N[C@@H](C)C(=O)NCC(=O)NCC(=O)NCC(=O)N[C@@H](C)C(=O)NCC(=O)NCC(=O)N[C@@H](C)C(=O)NCC(=O)O [Polypeptide P62, H-Ala--Gly--Ala--Gly--Gly--Gly--Ala--Gly--Gly--Ala--Gly--Ala--Gly--Gly--Gly--Ala--Gly--Gly--Ala--Gly--OH] (H-AGAGGGAGGAGAGGGAGGAG-OH) | relatively stable secondary structure | relatively higher average titer | rose in parallel with the corresponding anti-EBNA titer | detected in the first month after the onset of symptoms | None of the VCA- sera were found to react positively | None of tne sera displayed significant reactivity | 91 | 83 | absent before infection, but appeared afterward | 631 OD405 × 10^3 | 77 OD405 × 10^3 | 514 OD405 × 10^3 | 13 OD405 × 10^3 | 958 OD405 × 10^3 | 819 OD405 × 10^3 | all of the VCA+ indiviuals were positive | inhibited |  |  | 
C[C@H](NC(=O)CNC(=O)CNC(=O)[C@H](C)NC(=O)CNC(=O)[C@H](C)NC(=O)CNC(=O)CNC(=O)CN)C(=O)NCC(=O)N[C@@H](C)C(=O)NCC(=O)NCC(=O)NCC(=O)NCC(=O)N[C@@H](CCCNC(=N)N)C(=O)O [Polypeptide P60, H--Gly--Gly--Gly--Ala--Gly--Ala--Gly--Gly--Ala--Gly--Ala--Gly--Gly--Gly--Gly--Arg--OH] (H-GGGAGAGGAGAGGGGR-OH) | very similar spectra | relatively higher average titer |  |  | None of the VCA- sera were found to react positively | None of tne sera displayed significant reactivity | 91 |  | absent before infection, but appeared afterward | 162 OD405 × 10^3 | 72 OD405 × 10^3 | 115 OD405 × 10^3 | 51 OD405 × 10^3 | 154 OD405 × 10^3 | 145 OD405 × 10^3 | all of the VCA+ indiviuals were positive | inhibited | 45 ± 18 OD405 × 10^3 | innibited | 
CSCC[C@H](NC(=O)[C@@H]1CCCN1C(=O)[C@H](CCCNC(=N)N)NC(=O)[C@H](CCCCN)NC(=O)[C@H](CCC(=O)O)NC(=O)CNC(=O)[C@H](CCCNC(=N)N)NC(=O)CNC(=O)[C@H](CCCNC(=N)N)NC(=O)CNC(=O)[C@H](CCCNC(=N)N)NC(=O)CNC(=O)[C@H](CCCNC(=N)N)NC(=O)[C@H](C)NC(=O)[C@@H](N)CCCNC(=N)N)C(=O)O [Polypeptide P89, H--Arg--Ala--Arg--Gly--Arg--Gly--Arg--Gly--Arg--Gly--Glu--Lys--Arg--Pro--Met--OH] (H-RARGRGRGRGEKRPM-OH) |  |  |  |  |  |  |  |  | no antibodies were produced | 25 OD405 × 10^3 | 29 OD405 × 10^3 | 23 OD405 × 10^3 | 9 OD405 × 10^3 | 23 OD405 × 10^3 | 16 OD405 × 10^3 |  |  |  |  | did not significantly crossreact; also recorded: did not inhibit

Source: patent USRE33897E, “Synthetic polypeptides and antibodies related to Epstein-Barr virus nuclear antigen” (Scripps Clinic and Research Foundation, priority 1989, dated 1992)
